Here are results for one compound from patent US7101872B2, “Farnesyl dibenzodiazepinone, and processes for its production” (Ecopia BioSciences, Inc., priority 2003, dated 2006).

As usually defined, the IC50 is the point on the concentration scale where inhibition reaches its midpoint. A low value points to greater potency.

For one assay, the system named is GHD. As to the kind of experiment: Antiproliferative study, glioma cell lines (MTT). Type of assay: cell-based. Conditions: Homo sapiens, Astrocytoma, 96 hrs. The protocol: (§1) Cells were passaged once a week. Prior to use the cells were detached from the culture flask by treating with trypsin for five to ten minutes. The cells were counted with a Neubauer glass slide and viability assessed by 0.25% trypan blue exclusion. Only flasks with >95% cell viability, were used in the study. Cell lines amplification and plating: Cells, 5×10^3 cells per well in 100 μL drug-free medium supplemented with 10% serum, were plated in 96-well flat bottom microtiter plates and incubated at 37° C. for 48 hrs before treatment. Evaluation of inhibitory activity on cell proliferation: Cells (in triplicate wells) were incubated 96 hrs with medium containing different concentrations of ECO-04601, starting at 5.0 μg/ml (10 μM). The compound was used in a solution of 1% DMSO in D-MEM or RPMI media (or other equivalent media). The concentrations of ECO-04601 were as follows: 10 μM (5.0 μg/ml), 1 μM (0.50 μg/ml), 0.5 μM (0.25 μg/ml), 0.1 μM (0.050 μg/ml), 0.5 μM (0.025 μg/ml), 0.01 μM (0.0050 μg/ml), 0.001 μM (0.00050 μg/ml). Negative controls were cells treated with vehicle alone (1% DMSO in culture medium). Positive controls were cells treated with 4 to 6 increasing concentrations of cisplatin (CDDP) (data not shown). The optical density was measured before incubation (time 0) and following 96 hrs of incubation with test compound in order to measure the growth rate of each cell line.
(§2) At the end of the cell treatment, cell culture media was replaced with 150 μl of fresh medium containing 10 mM of 4-(2-hydroxyethyl)-1-piperazineethanesulfonic acid buffer, pH 7.4. Then 50 μl of 2.5 mg/ml of 3-(4,5-dimethylthiazo-2-yl)-2,5-diphenyltetrazolium bromide in PBS pH 7.4, were added to each well and the culture plates incubated for 4 hrs at 37° C. The resulting supernatant was removed and formazan crystals were dissolved with 200 μl of DMSO followed by 25 μl of glycine buffer (0.1 M glycine plus 0.1 M NaCl, pH 10.5). The optical density was read in each well using a single wavelength spectrophotometer plate reader at 570 nm. […] Each of the cell lines was tested in at least 3 independent experiments.

Another assay has as its system C6. As to the kind of experiment: Antiproliferative study, glioma cell lines (MTT). Format: cell-based. The settings on record: Rattus norvegicus, C6, Glioblastoma, 96 hrs. The protocol:
as §1, §2

In another assay the test system is 9L. As to the kind of experiment: Antiproliferative study, glioma cell lines (MTT). Format: cell-based. Conditions: Rattus norvegicus, Gliosarcoma, 96 hrs. On the procedure:
as §1, §2

Another assay has as its system GHA. Briefly: Antiproliferative study, glioma cell lines (MTT). Conditions: Homo sapiens, Oligodendroglioma, 96 hrs. Type of assay: cell-based. On the procedure: as §1, §2
The test system of another assay is U 373. As to the kind of experiment: Antiproliferative study, glioma cell lines (MTT). Format: cell-based. The settings on record: Homo sapiens, U373 MG, U 373, Astrocytoma, 96 hrs. On the procedure: as §1, §2
For another assay, the system named is DN. As to the kind of experiment: Antiproliferative study, glioma cell lines (MTT). Type of assay: cell-based. The settings on record: Homo sapiens, Oligodendroglioma, 96 hrs. The protocol:
as §1, §2

Assay [1] deals with C6 glioblastoma cell-bearing mice. Briefly: In vivo glioma model, treatment from day 10 after inoculation. Details: species or system Mus musculus nude mice. The settings on record: 20–30 mg/kg; versus vehicle-treated mice (FIG. 11). The protocol:
The aim of this study was to test whether ECO-04601 administered by i.p. route prevents or delays tumor growth in C6 glioblastoma cell-bearing mice, and to determine an effective dosage regimen.
Animal experiments were performed according to ethical guidelines of animal experimentation (Charte du comité d'éthique du CNRS, juillet 2003) and the English guidelines for the welfare of animals in experimental neoplasia (WORKMAN, P., […], P., BALKWILL, F., et al. (1998). United Kingdom Coordinating Committee on Cancer Research (UKCCCR) Guidelines for the welfare of animals in experimental neoplasia (Second Edition, July 1997; British Journal of Cancer 77:1–10). Any dead or apparently sick mice were promptly removed and replaced with healthy mice. Sick mice were euthanized upon removal from the cage. Animals were maintained in rooms under controlled conditions of temperature (23±2° C.), humidity (45±5%), photoperiodicity (12 hrs light/12 hrs dark) and air exchange. […] The cells were counted in a hemocytometer and their viability assessed by 0.25% trypan blue exclusion. […]
In a second series of experiments, treatment started at day 10 following inoculation of C6 cells when tumors became palpable (around 100 to 200 mm^3). […] Tumor volume was measured every second day until the end of the treatment using callipers. […]

A further assay deals with GL26. Briefly: Antiproliferative study, glioma cell lines (MTT). Conditions: Mus musculus, GL26, Glioblastoma, 96 hrs. Type of assay: cell-based, Human. The protocol: as §1, with “The concentrations of ECO-04601 were as follows: 10 μM (5.0 μg/ml), 1 μM (0.50 μg/ml), 0.5 μM (0.25 μg/ml), 0.1 μM (0.050 μg/ml), 0.5 μM (0.025 μg/ml), 0.01 μM (0.0050 μg/ml), 0.001 μM (0.00050 μg/ml). Negative controls were cells treated with vehicle alone (1% DMSO in culture medium). Positive controls were cells treated with 4 to 6 increasing concentrations of cisplatin (CDDP) (data not shown).” left out
At the end of the cell treatment, cell culture media was replaced with 150 μl of fresh medium containing 10 mM of 4-(2-hydroxyethyl)-1-piperazineethanesulfonic acid buffer, pH 7.4. […] The optical density was read in each well using a single wavelength spectrophotometer plate reader at 570 nm. […]

Turning to `CC(C)=CCC/C(C)=C/CC/C(C)=C/CN1C(=O)c2cccc(O)c2Nc2c(O)cc(O)cc21` [ECO-04601, 10-farnesyl-4,6,8-trihydroxy-dibenzodiazepin-11-one], the IC50 in the assay on GHD is 6.29 ± 2.98 µM; in the assay with C6, 4.28 ± 2.82 µM; with 9L, 6.82 ± 2.9 µM; in the assay on GHA it was 1.78 ± 0.84 µM; with U 373 it was 3.83 ± 1.37 µM; in the assay with DN, 3.26 ± 0.93 µM. For the same compound, the midpoint of inhibition in the assay with GL26, the IC50, lay at 8.93 ± 1.1 µM. Besides, the “Histological analysis of tumor sections” value in assay [1] was “cell density was decreased and the nuclei of remaining tumor cells appeared larger and pycnotic”.
